Measured values as given in ChEMBL document CHEMBL4831515 (J Med Chem, 2021).
≈ marks a conversion by molar mass, not a printed value.

Legend:
in vitro [1] = settings: human, liver microsomes
[2] = Stability in human liver microsomes assessed as compound remaining preincubated for 10 mins followed by phosphate buffer addition and incubated for 1 hr and subsequent addition of NADPH regenerating system and measured after 60 mins by LC-MS/MS analysis; assay type: ADME, Microsome; settings: time 190 min, read-out: Stability
[3] = Half life in human liver microsomes preincubated for 10 mins followed by phosphate buffer addition and incubated for 1 hr and subsequent addition of NADPH regenerating system and measured after 2 hrs by LC-MS/MS analysis
[4] = Cytotoxicity against human MT4 cells assessed as reduction in cell viability by MTT assay
[5] = Selectivity ratio of CC50 for human MT4 cells to IC50 for HIV1 RES056 infected in MT4 cells
[6] = test system: Human immunodeficiency virus 1; assay: Antiviral activity against HIV1 RES056 infected in human MT4 cells assessed as reduction in virus-induced cytopathogenic effect by MTT assay; settings: Human immunodeficiency virus 1, RES056, MT4
[7] = target: Human immunodeficiency virus type 1 reverse transcriptase (Human immunodeficiency virus 1, UniProt Q72547); assay: Inhibition of wild type HIV1 reverse transcriptase assessed as reduction in biotin-dUTP incorporation into […] incubated for 1 hrs by ELISA
[8] = test system: Human immunodeficiency virus 2; assay: Antiviral activity against wild type HIV2 ROD infected in human MT4 cells assessed as reduction in virus-induced cytopathogenic effect by MTT assay; settings: Human immunodeficiency virus 2, ROD
[9] = test system: Human immunodeficiency virus 1; assay: Antiviral activity against HIV1 3B infected in human MT4 cells assessed as reduction in virus-induced cytopathogenic effect by MTT assay; settings: Human immunodeficiency virus 1, 3B
[10] = test system: Human immunodeficiency virus 1; assay: Antiviral activity against HIV1 harboring K103N mutant infected in human MT4 cells assessed as reduction in virus-induced cytopathogenic effect by MTT assay; assay type: functional, organism-based; settings: Human immunodeficiency virus 1, MT4
[11] = test system: Human immunodeficiency virus 1; settings: Human immunodeficiency virus 1, MT4
[12] = test system: Human immunodeficiency virus 1; assay: Antiviral activity against wild type HIV1 harboring Y188L mutant infected in human MT4 cells assessed as reduction in virus-induced cytopathogenic effect by MTT assay; settings: Human immunodeficiency virus 1, MT4
in vitro [13] = settings: human, MT4 cells
Description: Selectivity index, ratio of CC50 for human MT4 cells to EC50 for HIV1 harboring E138K mutant infected in human MT4 cells

[14] = test system: Human immunodeficiency virus 1; assay: Antiviral activity against HIV1 harboring F227L/V106A mutant infected in human MT4 cells assessed as reduction in virus-induced cytopathogenic effect by MTT assay; assay type: functional, organism-based; settings: Human immunodeficiency virus 1, MT4
[15] = test system: Human immunodeficiency virus 1; assay: Antiviral activity against wild type HIV1 harboring Y181C mutant infected in human MT4 cells assessed as reduction in virus-induced cytopathogenic effect by MTT assay; settings: Human immunodeficiency virus 1, MT4
[16] = test system: Human immunodeficiency virus 1; assay: Antiviral activity against HIV1 harboring L100I mutant infected in human MT4 cells assessed as reduction in virus-induced cytopathogenic effect by MTT assay; settings: Human immunodeficiency virus 1, MT4
[17] = Solubility in phosphate buffer at pH7; settings: pH 7

Row | microsomal CLint at 2 h (in vitro [1]) | remaining at 1 h [2] | half-life at 2 h [3] | IC50 [7] | SMILES | CC50 [4] | selectivity ratio [5] | EC50 [6] | EC50 [8] | EC50 [9] | EC50 [10] | EC50 [11] | EC50 [12] | selectivity ratio (in vitro [13]) | EC50 [14] | EC50 [15] | EC50 [16] | solubility [17]
1 | 847 µL/min/mg | 0.2% | 1.6 min |  | Cc1cc(/C=C/C#N)cc(C)c1Oc1nc(NC2CCN(Cc3ccc(S(N)(=O)=O)cc3)CC2)nc2ccsc12 |  |  |  |  |  |  |  |  |  |  |  |  | 
2 |  |  |  | 144 nM | Cc1cc(C#N)cc(C)c1Oc1nc(NC2CCN(Cc3cccc(C(N)=O)c3)CC2)nc2c1CSCC2 | > 236000 nM | > 144 | 1640 nM | > 236000 nM | 15.4 nM |  |  |  |  |  |  |  | 
3 |  |  |  | 232 nM | Cc1cc(/C=C/C#N)cc(C)c1Oc1nc(NC2CCN(Cc3ccc([N+](=O)[O-])cc3)CC2)nc2c1CSCC2 | 59500 nM | 371 | 160 nM | > 59500 nM | 26.2 nM |  |  |  |  |  |  |  | 
4 |  |  |  | 184 nM | Cc1cc(/C=C/C#N)cc(C)c1Oc1nc(NC2CCN(Cc3cccc(C(N)=O)c3)CC2)nc2c1CSCC2 | 9450 nM | 21 | 443 nM | > 9450 nM | 50.4 nM |  |  |  |  |  |  |  | 
5 |  |  |  | 53 nM | Cc1cc(C#N)cc(C)c1Oc1nc(Nc2ccc(C#N)c(F)c2)nc2c1CSCC2 | 269000 nM | 1030 | 262 nM | > 269000 nM | 13.5 nM |  |  |  |  |  |  |  | 
6 |  |  |  | 53 nM | Cc1cc(C#N)cc(C)c1Oc1nc(Nc2ccc(C#N)cn2)nc2c1CSCC2 | > 302000 nM | > 1 | 256000 nM | > 302000 nM | 68.7 nM |  |  |  |  |  |  |  | 
7 |  |  |  | 171 nM | Cc1cc(/C=C/C#N)cc(C)c1Oc1nc(NC2CCN(Cc3cc(=O)[nH]c(=O)[nH]3)CC2)nc2c1CSCC2 | 23200 nM | 26 | 881 nM | > 23200 nM | 30.8 nM |  |  |  |  |  |  |  | 
8 |  |  |  | 65 nM | Cc1cc(C#N)cc(C)c1Oc1nc(Nc2ccc(C#N)cc2F)nc2c1CSCC2 | > 290000 nM | > 1 | > 290000 nM | > 290000 nM | 45.5 nM |  |  |  |  |  |  |  | 
9 |  |  |  | 43 nM | Cc1cc(C#N)cc(C)c1Oc1nc(Nc2ccc(C#N)nc2)nc2c1CSCC2 | 288000 nM | 119 | 2430 nM | > 288000 nM | 14.1 nM |  |  |  |  |  |  |  | 
10 |  |  |  | 59 nM | Cc1cc(/C=C/C#N)cc(C)c1Oc1nc(Nc2ccc(C#N)cn2)nc2c1CSCC2 | 246000 nM | 404 | 608 nM | > 246000 nM | 25.8 nM |  |  |  |  |  |  |  | 
11 |  |  |  | 230 nM | Cc1cc(C#N)cc(C)c1Oc1nc(NC2CCN(Cc3ccc([N+](=O)[O-])cc3)CC2)nc2c1CSCC2 | > 236000 nM | > 83 | 2850 nM | > 236000 nM | 11.5 nM |  |  |  |  |  |  |  | 
12 |  |  |  | 51 nM | Cc1cc(/C=C/C#N)cc(C)c1Oc1nc(Nc2ccc(C#N)cc2F)nc2c1CSCC2 | > 273000 nM | > 47 | 5810 nM | > 273000 nM | 31 nM |  |  |  |  |  |  |  | 
13 |  |  |  | 89 nM | Cc1cc(C#N)cc(C)c1Oc1nc(NC2CCN(Cc3cc(=O)[nH]c(=O)[nH]3)CC2)nc2c1CSCC2 | 25600 nM | 8 | 3200 nM | > 25600 nM | 13.8 nM |  |  |  |  |  |  |  | 
14 |  |  |  |  | Cc1cc(/C=C/C#N)cc(C)c1Oc1nc(NC2CCN(Cc3ccc(S(C)(=O)=O)cc3)CC2)nc2c1CSCC2 | 21500 nM | 186 | 116 nM | 4810 nM | 12.6 nM | 8.48 nM | 34.8 nM | 60.2 nM | 619 | 14.9 nM | 34.1 nM | 9.24 nM | 
15 |  |  |  |  | O=C1Nc2ccc(Cl)cc2[C@@](C#CC2CC2)(C(F)(F)F)O1 [EFAVIRENZ] | > 6340 nM |  |  |  |  | 111 nM |  |  |  |  |  |  | 
16 |  |  |  |  | Cc1cc(C#N)cc(C)c1Oc1nc(Nc2ccc(C#N)cc2)nc(N)c1Br [ETRAVIRINE] | > 4590 nM |  | 42.5 nM | > 4590 nM | 5.03 nM | 3.14 nM | 8.08 nM |  |  | 14.3 nM |  | 6.36 nM | < 1000 ng/mL
17 |  |  |  |  | Cc1ccnc2c1NC(=O)c1cccnc1N2C1CC1 [NEVIRAPINE] | > 15000 nM |  | > 15000 nM | > 15000 nM |  | 12300 nM | 182 nM | > 15000 nM |  | > 15000 nM | > 15000 nM | 2220 nM | 
18 |  |  |  |  | Cc1cc(/C=C/C#N)cc(C)c1Nc1ccnc(Nc2ccc(C#N)cc2)n1 [RILPIVIRINE] |  |  |  |  |  |  |  |  |  |  |  |  | 2 ng/mL (≈ 5.46 nM)

Row | SMILES | microsomal CLint at 2 h (in vitro [1]) | remaining at 1 h [2] | half-life at 2 h [3] | IC50 [7] | CC50 [4] | selectivity ratio [5] | EC50 [6] | EC50 [8] | EC50 [9] | EC50 [10] | EC50 [11] | EC50 [12] | selectivity ratio (in vitro [13]) | EC50 [14] | EC50 [15] | EC50 [16] | solubility [17]
19 | Cc1cc(/C=C/C#N)cc(C)c1Oc1nc(NC2CCN(Cc3ccc(C(N)=O)cc3)CC2)nc2c1CSCC2 |  |  |  | 179 nM | 18500 nM | 495 | 37.3 nM | > 18500 nM | 15.5 nM | 12.5 nM | 30 nM | 35.2 nM | 615 | 20 nM | 31.1 nM | 8.65 nM | 
20 | Cc1cc(/C=C/C#N)cc(C)c1Oc1nc(Nc2ccc(C#N)nc2)nc2c1CSCC2 |  |  |  | 32 nM | 109000 nM | 1340 | 81.6 nM | > 109000 nM | 12.1 nM | 4.09 nM | 12.8 nM | 59.6 nM | 8520 | 148 nM | 13.3 nM | 9.08 nM | 
21 | Cc1cc(C#N)cc(C)c1Oc1nc(Nc2ccc(C#N)cc2)nc2c1CSCC2 |  |  |  | 41 nM | 202000 nM | 1360 | 148 nM | > 202000 nM | 5.64 nM | < 3.87 nM | 9.43 nM | 24.3 nM | 21400 | 27.1 nM | 27.6 nM | 9.31 nM | 
22 | Cc1cc(/C=C/C#N)cc(C)c1Oc1nc(NC2CCN(Cc3ccc(S(N)(=O)=O)cc3)CC2)nc2c1CSCC2 |  |  |  | 203 nM | 15100 nM | 272 | 55.4 nM | 4050 nM | 10.7 nM | 9.23 nM | 40.7 nM | 37.1 nM | 370 | 16.3 nM | 22.3 nM | 8.13 nM | 
23 | Cc1cc(C#N)cc(C)c1Oc1nc(NC2CCN(Cc3ccc(S(C)(=O)=O)cc3)CC2)nc2c1CSCC2 |  |  |  | 134 nM | 58000 nM | 465 | 125 nM | 5640 nM | 11.1 nM | 6.65 nM | 18.7 nM | 18.4 nM | 3100 | 17.1 nM | 20.8 nM | 11.6 nM | 
24 | Cc1cc(C#N)cc(C)c1Oc1nc(NC2CCN(Cc3ccc(S(N)(=O)=O)cc3)CC2)nc2c1CSCC2 |  |  |  | 151 nM | > 221000 nM | > 1850 | 120 nM | > 221000 nM | 13.7 nM | 7.17 nM | 15.9 nM | 12.6 nM | > 13900 | 15.1 nM | 7.44 nM | 7.88 nM | 
25 | Cc1cc(/C=C/C#N)cc(C)c1Oc1nc(Nc2ccc(C#N)c(F)c2)nc2c1CSCC2 |  |  |  | 8 nM | 54400 nM | 408 | 133 nM | > 54400 nM | 15.8 nM | 15.8 nM | 41.2 nM | 54.3 nM | 1320 | 74.3 nM | 32.7 nM | 8.41 nM | 
26 | Cc1cc(C#N)cc(C)c1Oc1nc(NC2CCN(Cc3ccc(C(N)=O)cc3)CC2)nc2c1CSCC2 |  |  |  | 143 nM | > 236000 nM | > 1690 | 140 nM | > 236000 nM | 9.98 nM | 8.8 nM | 32.9 nM | 22.8 nM | > 7180 | 853 nM | 21.4 nM | 22.3 nM | 
